The values that follow come from ChEMBL document CHEMBL3046426, “Analytical and biological characterization of quinazoline semicarbazone derivatives” (Med Chem Res, 2010).

The structures appear in SMILES notation.

The test system of one series is Candida albicans. In words: Antifungal activity against Candida albicans NCIM 0707 after 18 hr by disk diffusion method. Also: test concentration or dose not given here. Format: functional.
In the next series the test system is Lederbergia lenta. The experiment in a line: Antibacterial activity against Bacillus lentus NCIM 2018 after 18 hr by disk diffusion method. Also: test concentration or dose not given here. Format: functional. On the technique in general: Agar diffusion results depend on both activity and mobility in agar.
A short description of series [1]: Solubility of the compound in acetic acid. Format: physicochemical.
Series [2] is described as follows: Solubility of the compound in chloroform. Format: physicochemical.
A further series has as its system Klebsiella aerogenes. The experiment in a line: Antibacterial activity against Enterobacter aerogenesNCIM 2075 after 18 hr by disk diffusion method. Also: test concentration or dose not given here. The format is functional, NCIM 2075.
The subject of a further series is Micrococcus luteus. In words: Antibacterial activity against Micrococcus luteus NCIM 2155 after 18 hr by disk diffusion method. Also: test concentration or dose not given here. The format is functional.
Series [3] is described as follows: Solubility of the compound in DMSO. Format: physicochemical.
The subject of a further series is Escherichia coli. The experiment in a line: Antibacterial activity against Escherichia coli NCIM 2065 after 18 hr by disk diffusion method. Also: test concentration or dose not given here. The format is functional.
In the next series the test system is Staphylococcus. In words: Antibacterial activity against Staphylococcus albus NCIM 2178 after 18 hr by disk diffusion method. Also: test concentration or dose not given here. The format is functional.
A short description of series [4]: Solubility of the compound in dilute acids. Format: physicochemical.
Series [5] can be described thus: Solubility of the compound in ethyl acetate. Format: physicochemical.
The next series relates to Salmonella paratyphi. The experiment in a line: Antibacterial activity against Salmonella enterica subsp. enterica serovar Paratyphi A NCIM […] after 18 hr by disk diffusion method. Format: functional.
A short description of series [6]: Solubility of the compound in DMF. The format is physicochemical.
The nature of series [7]: Solubility of the compound in benzene. Format: physicochemical.
The next series relates to Proteus vulgaris. In words: Antibacterial activity against Proteus vulgaris NCIM 2239 after 18 hr by disk diffusion method. Also: test concentration or dose not given here. The format is functional.
The subject of another series is Bacillus cereus. The experiment in a line: Antibacterial activity against Bacillus cereus NCIM 2018 after 18 hr by disk diffusion method. Also: test concentration or dose not given here. Format: functional.
A short description of series [8]: Solubility of the compound in water. The format is physicochemical.
Series [9] can be described thus: Solubility of the compound in ethanol. Format: physicochemical.

In the case of `Clc1ccccc1C(c1ccccc1)(c1ccccc1)n1ccnc1` [CLOTRIMAZOLE], the “diameter of the inhibition zone (DIZ)” value in the series on Candida albicans is 14 mm.
As for `CN(C)c1ccc(/C=N/NC(=O)Nn2c(-c3ccccc3)nc3ccccc3c2=O)cc1`, the “diameter of the inhibition zone (DIZ)” value is recorded as 18 mm in the series on Lederbergia lenta; 17 mm in the series with Klebsiella aerogenes; 16 mm with Micrococcus luteus; 19 mm with Escherichia coli; 16 mm in the series on Staphylococcus; 15 mm in the series on Salmonella paratyphi. In addition, the “diameter of the inhibition zone (DIZ)” value in the series with Candida albicans was found to be 21 mm; in the series on Proteus vulgaris, 18 mm; in the series on Bacillus cereus, 17 mm. Further, the solubility entry in series [1] was “Insoluble”; in series [2], “soluble”; in series [3] it was “soluble”; in series [4] it was “Insoluble”; in [5], “soluble”; in series [6], “soluble”. Moreover, the values for the solubility result in [7], in [8] and in series [9] were “soluble”, “Insoluble” and “soluble”, respectively.
On to `O=C(O)c1cn(C2CC2)c2cc(N3CCNCC3)c(F)cc2c1=O` [CIPROFLOXACIN], for which the “diameter of the inhibition zone (DIZ)” value with Lederbergia lenta is 9 mm; in the series with Klebsiella aerogenes, 10 mm; in the series with Micrococcus luteus it was 8 mm; with Escherichia coli, 16 mm; with Staphylococcus it was 8 mm; in the series with Salmonella paratyphi, 8 mm. Besides, the “diameter of the inhibition zone (DIZ)” value in the series on Proteus vulgaris is 8 mm; in the series on Bacillus cereus, 9 mm.
For `O=C(NN=C(c1ccccc1)c1ccccc1)Nn1c(-c2ccccc2)nc2ccccc2c1=O`, the “diameter of the inhibition zone (DIZ)” value in the series with Lederbergia lenta was 17 mm; in the series on Klebsiella aerogenes, 15 mm; with Micrococcus luteus, 12 mm; with Escherichia coli it was 21 mm; with Staphylococcus it was 10 mm; in the series with Salmonella paratyphi, 16 mm. Moreover, the “diameter of the inhibition zone (DIZ)” value with Candida albicans stood at 25 mm; in the series with Proteus vulgaris, 16 mm; in the series with Bacillus cereus it was 15 mm. In addition, the solubility entry in series [1] is recorded as “Insoluble”; in [2] it was “soluble”; in series [3], “soluble”; in series [4] it was “Insoluble”; in series [5] it was “soluble”; in series [6], “soluble”. Besides, the solubility entry is “soluble” in series [7], “Insoluble” in series [8] and “soluble” in series [9].
For `COc1cc(/C=N/NC(=O)Nn2c(-c3ccccc3)nc3ccccc3c2=O)ccc1O`, the “diameter of the inhibition zone (DIZ)” value stood at 18 mm with Lederbergia lenta; 16 mm with Klebsiella aerogenes; 15 mm with Micrococcus luteus; 19 mm in the series with Escherichia coli; 13 mm in the series on Staphylococcus; 15 mm in the series on Salmonella paratyphi. In addition, the “diameter of the inhibition zone (DIZ)” value was determined as 21 mm in the series on Candida albicans, 16 mm in the series with Proteus vulgaris and 14 mm in the series on Bacillus cereus. Further, the solubility result in series [1], in series [2], in series [3], in series [4], in series [5] and in [6] was “soluble” throughout. Further, the results for the solubility result in [7], in series [8] and in series [9] were “soluble”, “Insoluble” and “soluble”, respectively.
As for `CC12CCC(C/C1=N/NC(=O)Nn1c(-c3ccccc3)nc3ccccc3c1=O)C2(C)C` (centres undefined), the “diameter of the inhibition zone (DIZ)” value with Lederbergia lenta amounted to 17 mm; with Klebsiella aerogenes, 16 mm; in the series on Micrococcus luteus, 14 mm; with Escherichia coli, 18 mm; with Staphylococcus it was 12 mm; in the series on Salmonella paratyphi, 15 mm. Further, the “diameter of the inhibition zone (DIZ)” value amounted to 20 mm in the series with Candida albicans, 17 mm in the series on Proteus vulgaris and 14 mm in the series on Bacillus cereus. Also, the solubility result is listed as “Insoluble” in [1]; “soluble” in [2]; “soluble” in [3]; “Insoluble” in series [4]; “soluble” in series [5]; “soluble” in series [6]. The solubility entry in series [7] is “Insoluble”; in [8] it was “Insoluble”; in series [9], “soluble”.
Take `O=C(N/N=C1/C(=O)Nc2ccccc21)Nn1c(-c2ccccc2)nc2ccccc2c1=O`: the “diameter of the inhibition zone (DIZ)” value is listed as 17 mm with Lederbergia lenta; 17 mm in the series on Klebsiella aerogenes; 16 mm in the series on Micrococcus luteus; 21 mm in the series on Escherichia coli; 13 mm in the series with Staphylococcus; 16 mm in the series with Salmonella paratyphi. Moreover, the entries for the “diameter of the inhibition zone (DIZ)” value with Candida albicans, in the series with Proteus vulgaris and in the series with Bacillus cereus were 22 mm, 17 mm and 12 mm, respectively. Moreover, the solubility entry in series [1], in series [2], in [3], in series [4], in [5] and in series [6] was “soluble” throughout. Further, the solubility entry in series [7] is reported as “soluble”; in [8], “Insoluble”; in [9], “soluble”.
